# From US6509375B1, “Method for increasing productivity in breeder hens” (Cyncron Corporation, priority 1999, dated 2003)
# Columns and labels:
# Format in all cases: in vivo
# [1] = tested on: Hubbard broiler/breeder hens; experiment: Egg and chick production by broiler/breeder hens fed L-DOPA-supplemented diet (Example 1); details: for Fertility (%): eggs laid that are fertile; for Egg production (%): eggs/day/100 hens, 50 mg/kg body weight in feed; for Hatch/Fertile (%): fertile eggs that hatch / fertile eggs laid; for Chick Production (%): product of egg production, fertility and hatch/fertile percentages
# Procedure: 20 Hubbard broiler/breeder hens and 4 roosters at 57 weeks of age were separated into two groups of 10 hens and two roosters. One group was fed a control (untreated) diet and the second group was fed the same diet supplemented with 50 mg/kg body weight of L-DOPA for 10 weeks. This was followed by a 3-4 week rest period and then treatment was initiated for another 3 weeks (retreatment).
# (§1) Beginning with week 6 of treatment, eggs from treated hens were incubated and hatched. The progeny were then followed for seven to eight weeks to assess weight gain and feeding efficiency. Egg production percentage is in terms of eggs/day/100 hens. The fertility percentage is the number of eggs laid that are fertile. The hatch/fertile ratio is the number of fertile eggs that hatch divided by the number of fertile eggs laid. The chick production percentage is the product of the egg production, fertility, and hatch/fertile percentages.
# [2] = tested on: progeny chicks of broiler/breeder hens; experiment: Feeding efficiency of progeny chicks hatched from eggs of L-DOPA treated breeder hens
# Procedure: As used herein, “feeding efficiency” is defined as the ratio of the weight of feed necessary to achieve one weight unit in broiler/breeder hens.
# as §1
# The progeny chicks hatched from eggs laid by the control and L-DOPA treated breeder hens were evaluated for feeding efficiency, as described above.
# Progeny Group 1: 8 week feed conversions; Week […] of treatment in broiler breeders
# Progeny Group 2: 8 week feed conversions; Week 7 of treatment in broiler breeders
# Progeny Group 3: 8 week feed conversions; Week 8 of treatment in broiler breeders
# Progeny Group 4: 7 week feed conversions; Week 9 of treatment in broiler breeders
# Progeny Group 5: 6 week feed conversions; Week 10 of treatment in broiler breeders
# broiler/breeder hens = experiment: Egg laying by broiler breeder hens following handling and transfer stress (Example 2); details: for number of eggs laid: ten hens/group, 50 mg/day/kg body weight in food
# Procedure: 58 week old broiler/breeder hens were obtained from a commercial private breeder when they were laying at a rate of approximately 54% (54 eggs/day/100 hens; 38 eggs/week/10 hens). […] L-DOPA was added to the feed of the treatment group of breeder hens at a dosage of 50 mg/day/kg body weight; none was added to the feed of the control group. Egg laying was monitored daily for 9 weeks in the treated and control group.
compound,measurement,setting,value
"N[C@@H](Cc1ccc(O)c(O)c1)C(=O)O [L-DOPA, L-Dihydroxyphenylalanine]",average percentage egg production versus control hens,"[1]; FIG. 1, over an eight week period",greater
same,cumulative egg production versus control hens,"[1]; FIG. 2, nine week period, L-DOPA-supplemented feed",significantly higher
same,percentage egg production versus control hens during re-treatment,"[1]; FIG. 3, three weeks of re-treatment following three weeks without L-DOPA",increase
same,average weekly egg production versus control hens,"[1]; FIGS. 1 and 2, L-DOPA-supplemented feed 50 mg/kg body weight",significantly higher
same,higher rates of hatching of fertile eggs over eggs from control hens,"[1]; eggs set for incubation during weeks 7, 8 and 10 of treatment",15%
same,Fertility (%),"[1]; mean of weeks 7, 8, 10",92%
same,Egg production (%),"[1]; mean of weeks 7, 8, 10",64%
same,Hatch/Fertile (%),"[1]; mean of weeks 7, 8, 10",84%
same,Chick Production (%),"[1]; mean of weeks 7, 8, 10",51%
same,Fertility (%),[1]; week 7 of treatment,84%
same,Egg production (%),[1]; week 7 of treatment,71%
same,Hatch/Fertile (%),[1]; week 7 of treatment,75%
same,Chick Production (%),[1]; week 7 of treatment,45%
same,Fertility (%),[1]; week 8 of treatment,100%
same,Egg production (%),[1]; week 8 of treatment,58%
same,Hatch/Fertile (%),[1]; week 8 of treatment,90%
same,Chick Production (%),[1]; week 8 of treatment,52%
same,Fertility (%),[1]; week 10 of treatment,92%
same,Egg production (%),[1]; week 10 of treatment,62%
same,Hatch/Fertile (%),[1]; week 10 of treatment,86%
same,Chick Production (%),[1]; week 10 of treatment,55%
same,overall gain in chick production over the control groups,"[1]; weeks 7, 8 and 10 of treatment",76%
same,Final feeding efficiency of progeny,[2]; Average of progeny groups 1-5,2.05 pounds of feed consumed per pound of body weight gained
same,Final feeding efficiency of progeny,"[2]; Progeny Group 1: 8 week feed conversions, Week 8 of treatment in broiler breeders",1.99 pounds of feed consumed per pound of body weight gained
same,Final feeding efficiency of progeny,"[2]; Progeny Group 2: 8 week feed conversions, Week 7 of treatment in broiler breeders",2.07 pounds of feed consumed per pound of body weight gained
same,Final feeding efficiency of progeny,"[2]; Progeny Group 3: 8 week feed conversions, Week 8 of treatment in broiler breeders",1.98 pounds of feed consumed per pound of body weight gained
same,Final feeding efficiency of progeny,"[2]; Progeny Group 4: 7 week feed conversions, Week 9 of treatment in broiler breeders",2.07 pounds of feed consumed per pound of body weight gained
same,Final feeding efficiency of progeny,"[2]; Progeny Group 5: 6 week feed conversions, Week 10 of treatment in broiler breeders",2.12 pounds of feed consumed per pound of body weight gained
same,average increase in feeding efficiency of progeny relative to control birds,[2]; progeny hatched from eggs during weeks 6-10 of treatment,6%
same,number of eggs laid,broiler/breeder hens; Total of weeks 1-9 after handling and transfer stress,327
same,recovery time to achieve the same egg laying productivity rate as before the stress,broiler/breeder hens; control hens: two months,one month
same,total number of eggs laid greater than that of untreated controls,broiler/breeder hens; nine weeks following the moving stress,31%
same,number of eggs laid,broiler/breeder hens; week 1 after handling and transfer stress,10
same,number of eggs laid,broiler/breeder hens; week 2 after handling and transfer stress,29
same,number of eggs laid,broiler/breeder hens; week 3 after handling and transfer stress,34
same,number of eggs laid,broiler/breeder hens; week 4 after handling and transfer stress,41
same,number of eggs laid,broiler/breeder hens; week 5 after handling and transfer stress,39
same,number of eggs laid,broiler/breeder hens; week 6 after handling and transfer stress,50
same,number of eggs laid,broiler/breeder hens; week 7 after handling and transfer stress,41
same,number of eggs laid,broiler/breeder hens; week 8 after handling and transfer stress,40
same,number of eggs laid,broiler/breeder hens; week 9 after handling and transfer stress,43
